Measurements taken from US4425347A, “Perfluorobicyclo compound emulsion preparation” (priority 1982, dated 1984).

Experiment: Distribution of Perfluoro-compound in Organs (gas chromatography)
Type: in vivo, Wister-strain male rats
Conditions: 4 g/kg, tail vein; for Residual Rate of perfluorobicyclo compound: 3 Months after administration
Protocol: Using Wister-strain male rats weighing 120-130 g, the emulsion prepared in Example 1 was administered into the tail vein [at 4 g/kg as perfluoro-4-methyloctahydroquinolidine], and for a period of 3 months after the administration, the content of said compound in the liver, spleen and fat tissues due to uptake were measured by means of gas chromatography.

FC(F)(F)C1(F)N2C(F)(F)C(F)(F)C(F)(F)C(F)(F)C2(F)C(F)(F)C(F)(F)C1(F)F (centres unmarked) [perfluoro-4-methyloctahydroquinolidine]
adverse influence on the liver or spleen organ (3 months): no evidence of adverse influence on the liver or spleen organ | uptake by the reticulo-endothelial organ and disappearance (rat): taken up in greater amounts by the reticulo-endothelial organ shortly after the administration, but soon disappeared rapidly | Residual Rate of perfluorobicyclo compound (Liver): 0.30% | Residual Rate of perfluorobicyclo compound (Spleen): 0.09% | half-life (in vivo, iv, 4000 mg/kg, rat): 176 h
